# Laboratory results taken from the supplement of paper PMC10307832.
# Assays:
# Experiment in all cases: relative viability (nuclei count vs DMSO), 5 days (fraction); higher = more cells survive
# PC-14 = tested on: PC-14
# Outline: (§1)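 Lung cancer cell lines in 1536-well plates were dosed by pin tool the day after seeding, either with one drug alone or with a fixed anchor-drug dose plus five library-drug doses (not always all listed) in √10 steps. After 5 days, cells were fixed and their nuclei stained in one step (final 0.05% Triton X-100, 1% formaldehyde, 1 ug/ml Hoechst), then counted on 4× images. Relative viability is the nuclei count in treated wells divided by that in vehicle wells. Values are medians of duplicate plates.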
# NCI-H522 = tested on: NCI-H522
# Outline: as §1
# NCI-H2009 = tested on: NCI-H2009
# Outline: as §1
# EKVX = tested on: EKVX
# Outline: as §1
# HOP-62 = tested on: HOP-62
# Outline: as §1
# NCI-H2347 = tested on: NCI-H2347
# Outline: as §1
# NCI-H2228 = tested on: NCI-H2228
# Outline: as §1
# UMC-11 = tested on: UMC-11
# Outline: as §1
# NCI-H1993 = tested on: NCI-H1993
# Outline: as §1
# NCI-H1793 = tested on: NCI-H1793
# Outline: as §1
# NCI-H1395 = tested on: NCI-H1395
# Outline: as §1
# NCI-H2170 = tested on: NCI-H2170
# Outline: as §1
structure (smiles),measurement,setting,value
Clc1ccc(Nc2nnc(Cc3ccncc3)c3ccccc23)cc1 [Vatalanib] + CC(=O)c1c(C)c2cnc(Nc3ccc(N4CCNCC4)cn3)nc2n(C2CCCC2)c1=O [Palbociclib] (partner 0.5 µM),relative viability,PC-14; first compound 0.04 µM,0.523
same,relative viability,PC-14; first compound 0.1265 µM,0.492
same,relative viability,PC-14; first compound 0.4 µM,0.581
same,relative viability,PC-14; first compound 1.265 µM,0.473
same,relative viability,PC-14; first compound 4 µM,0.532
same,relative viability,NCI-H522; first compound 0.04 µM,0.872
same,relative viability,NCI-H522; first compound 0.1265 µM,1.06
same,relative viability,NCI-H522; first compound 0.4 µM,1.18
same,relative viability,NCI-H522; first compound 1.265 µM,1.06
same,relative viability,NCI-H522; first compound 4 µM,0.993
same,relative viability,NCI-H2009; first compound 0.04 µM,0.245
same,relative viability,NCI-H2009; first compound 0.1265 µM,0.203
same,relative viability,NCI-H2009; first compound 0.4 µM,0.249
same,relative viability,NCI-H2009; first compound 1.265 µM,0.24
same,relative viability,NCI-H2009; first compound 4 µM,0.213
same,relative viability,EKVX; first compound 0.04 µM,0.366
same,relative viability,EKVX; first compound 0.1265 µM,0.369
same,relative viability,EKVX; first compound 0.4 µM,0.343
same,relative viability,EKVX; first compound 1.265 µM,0.375
same,relative viability,EKVX; first compound 4 µM,0.334
same,relative viability,HOP-62; first compound 0.04 µM,0.459
same,relative viability,HOP-62; first compound 0.1265 µM,0.436
same,relative viability,HOP-62; first compound 0.4 µM,0.417
same,relative viability,HOP-62; first compound 1.265 µM,0.45
same,relative viability,HOP-62; first compound 4 µM,0.481
same,relative viability,NCI-H2347; first compound 0.04 µM,0.428
same,relative viability,NCI-H2347; first compound 0.1265 µM,0.423
same,relative viability,NCI-H2347; first compound 0.4 µM,0.494
same,relative viability,NCI-H2347; first compound 1.265 µM,0.418
same,relative viability,NCI-H2347; first compound 4 µM,0.446
same,relative viability,NCI-H2228; first compound 0.04 µM,0.795
same,relative viability,NCI-H2228; first compound 0.1265 µM,0.838
same,relative viability,NCI-H2228; first compound 0.4 µM,0.806
same,relative viability,NCI-H2228; first compound 1.265 µM,0.765
same,relative viability,NCI-H2228; first compound 4 µM,0.612
same,relative viability,UMC-11; first compound 0.04 µM,0.3
same,relative viability,UMC-11; first compound 0.1265 µM,0.316
same,relative viability,UMC-11; first compound 0.4 µM,0.34
same,relative viability,UMC-11; first compound 1.265 µM,0.356
same,relative viability,UMC-11; first compound 4 µM,0.338
same,relative viability,NCI-H1993; first compound 0.04 µM,0.872
same,relative viability,NCI-H1993; first compound 0.1265 µM,0.653
same,relative viability,NCI-H1993; first compound 0.4 µM,0.814
same,relative viability,NCI-H1993; first compound 1.265 µM,0.562
same,relative viability,NCI-H1993; first compound 4 µM,0.528
same,relative viability,NCI-H1793; first compound 0.04 µM,0.274
same,relative viability,NCI-H1793; first compound 0.1265 µM,0.262
same,relative viability,NCI-H1793; first compound 0.4 µM,0.324
same,relative viability,NCI-H1793; first compound 1.265 µM,0.285
same,relative viability,NCI-H1793; first compound 4 µM,0.319
same,relative viability,NCI-H1395; first compound 0.04 µM,0.654
same,relative viability,NCI-H1395; first compound 0.1265 µM,0.622
same,relative viability,NCI-H1395; first compound 0.4 µM,0.631
same,relative viability,NCI-H1395; first compound 4 µM,0.568
same,relative viability,NCI-H2170; first compound 0.04 µM,0.415
same,relative viability,NCI-H2170; first compound 0.1265 µM,0.443
same,relative viability,NCI-H2170; first compound 0.4 µM,0.35
same,relative viability,NCI-H2170; first compound 1.265 µM,0.376
same,relative viability,NCI-H2170; first compound 4 µM,0.384
